Measured values: patent US9701662B2, “Herbicidal compounds” (Syngenta Participations AG, priority 2014, dated 2017)

Experiments:
Type in all cases: in vivo
[1] = system: Amaranthus retoflexus (AMARE); test: Pre-emergence glasshouse herbicide test; conditions: pre-emergence (sprayed after one day cultivation), 1000 g/h, evaluated after 13 days, five point scale
Description: (§1) Seeds of a variety of test species are sown in standard soil in pots (Lolium perenne (LOLPE), Solanum nigrum (SOLNI), Amaranthus retoflexus (AMARE), Setaria faberi (SETFA), Echinochloa crus-galli (ECHCG), Ipomoea hederacea (IPOHE)). After cultivation for one day (pre-emergence) or after 8 days cultivation (post-emergence) under controlled conditions in a glasshouse (at 24/16° C., day/night; 14 hours light; 65% humidity), the plants are sprayed with an aqueous spray solution derived from the formulation of the technical active ingredient in acetone/water (50:50) solution containing 0.5% Tween 20 (polyoxyethelyene sorbitan monolaurate, CAS RN 9005-64-5). Compounds are applied at 1000 g/h. The test plants are then grown in a glasshouse under controlled conditions in a glasshouse (at 24/16° C., day/night; 14 hours light; 65% humidity) and watered twice daily. After 13 days for pre and post-emergence, the test is evaluated for the percentage damage caused to the plant. The biological activities are shown in the following table on a five point scale (5=80-100%; 4=60-79%; 3=40-59%; 2=20-39%; 1=0-19%).

Lolium perenne (LOLPE) [2] = test: Pre-emergence glasshouse herbicide test; conditions: pre-emergence (sprayed after one day cultivation), 1000 g/h, evaluated after 13 days, five point scale
Description: as §1

Solanum nigrum (SOLNI) [3] = test: Pre-emergence glasshouse herbicide test; conditions: pre-emergence (sprayed after one day cultivation), 1000 g/h, evaluated after 13 days, five point scale
Description: as §1

[4] = system: Ipomoea hederacea (IPOHE); test: Pre-emergence glasshouse herbicide test; conditions: pre-emergence (sprayed after one day cultivation), 1000 g/h, evaluated after 13 days, five point scale
Description: as §1

Setaria faberi (SETFA) [5] = test: Pre-emergence glasshouse herbicide test; conditions: pre-emergence (sprayed after one day cultivation), 1000 g/h, evaluated after 13 days, five point scale
Description: as §1

[6] = system: Echinochloa crus-galli (ECHCG); test: Pre-emergence glasshouse herbicide test; conditions: pre-emergence (sprayed after one day cultivation), 1000 g/h, evaluated after 13 days, five point scale
Description: as §1

[7] = system: Amaranthus retoflexus (AMARE); test: Post-emergence glasshouse herbicide test; conditions: post-emergence (sprayed after 8 days cultivation), 1000 g/h, evaluated after 13 days, five point scale
Description: as §1

Lolium perenne (LOLPE) [8] = test: Post-emergence glasshouse herbicide test; conditions: post-emergence (sprayed after 8 days cultivation), 1000 g/h, evaluated after 13 days, five point scale
Description: as §1

Solanum nigrum (SOLNI) [9] = test: Post-emergence glasshouse herbicide test; conditions: post-emergence (sprayed after 8 days cultivation), 1000 g/h, evaluated after 13 days, five point scale
Description: as §1

[10] = system: Ipomoea hederacea (IPOHE); test: Post-emergence glasshouse herbicide test; conditions: post-emergence (sprayed after 8 days cultivation), 1000 g/h, evaluated after 13 days, five point scale
Description: as §1

Setaria faberi (SETFA) [11] = test: Post-emergence glasshouse herbicide test; conditions: post-emergence (sprayed after 8 days cultivation), 1000 g/h, evaluated after 13 days, five point scale
Description: as §1

[12] = system: Echinochloa crus-galli (ECHCG); test: Post-emergence glasshouse herbicide test; conditions: post-emergence (sprayed after 8 days cultivation), 1000 g/h, evaluated after 13 days, five point scale
Description: as §1

SMILES	percentage damage caused to the plant, AMARE, PRE Application [1]	percentage damage caused to the plant, LOLPE, PRE Application (Lolium perenne (LOLPE) [2])	percentage damage caused to the plant, SOLNI, PRE Application (Solanum nigrum (SOLNI) [3])	percentage damage caused to the plant, IPOHE, PRE Application [4]	percentage damage caused to the plant, SETFA, PRE Application (Setaria faberi (SETFA) [5])	percentage damage caused to the plant, ECHCG, PRE Application [6]	percentage damage caused to the plant, AMARE, POST Application [7]	percentage damage caused to the plant, LOLPE, POST Application (Lolium perenne (LOLPE) [8])	percentage damage caused to the plant, SOLNI, POST Application (Solanum nigrum (SOLNI) [9])	percentage damage caused to the plant, IPOHE, POST Application [10]	percentage damage caused to the plant, SETFA, POST Application (Setaria faberi (SETFA) [11])	percentage damage caused to the plant, ECHCG, POST Application [12]
COc1cccc(-c2c(Cl)c(C(=O)Nc3nnnn3C)nn(C)c2=O)c1 [Compound 1.036]	5 (5=80-100%)	5 (5=80-100%)	5 (5=80-100%)	2 (2=20-39%)	5 (5=80-100%)	5 (5=80-100%)	5 (5=80-100%)	5 (5=80-100%)	5 (5=80-100%)	4 (4=60-79%)	5 (5=80-100%)	5 (5=80-100%)
Cn1nnnc1NC(=O)c1nn(C)c(=O)c(-c2ccccc2C(F)(F)F)c1Cl [Compound 1.037]	5 (5=80-100%)	5 (5=80-100%)	5 (5=80-100%)	5 (5=80-100%)	5 (5=80-100%)	5 (5=80-100%)	5 (5=80-100%)	5 (5=80-100%)	5 (5=80-100%)	5 (5=80-100%)	5 (5=80-100%)	5 (5=80-100%)
